Consider seven substances from patent US20240209022A1, “NOVEL PEPTIDE HAVING ANTI-INFLAMMATORY AND TISSUE REGENERATIVE ACTIONS” (KOREA RESEARCH INSTITUTE OF BIOSCIENCE AND BIOTECHNOLOGY, priority 2020, published 2024).

Holding throughout (assay type): in vivo, C57BL/6J mice
The subject of assay [1] is non-alcoholic hepatitis model. As to the kind of experiment: High-fat diet-induced non-alcoholic steatohepatitis model, liver gene expression. Conditions: RT-qPCR; vs PBS buffer group. The protocol: A non-alcoholic hepatitis model was induced by feeding a high-fat diet to 8-week-old SPF male C57BL/6J mice. The experiment for groups administered with Amuc_1409 and PEP001 to PEP005 was performed as follows. Mice fed a high-fat diet for 45 weeks were fed a high-fat diet for an additional 3 weeks, and Amuc_1409 was dissolved in PBS buffer at a concentration of 2.4 μM and then orally administered to the mice by 150 μL per animal at the same time once a day until the end of the experiment, or mice fed a high-fat diet for 8 weeks were fed a high-fat diet for an additional 3 weeks, and PEP001, PEP002, PEP003, PEP004, or PEP005 was dissolved in PBS buffer at a concentration of 2.4 μM and then orally administered to the mice by 150 μL per animal at the same time once a day until the end of the experiment. To the control group, PBS buffer was orally administered in the same manner. The experiment for groups administered with PEP006 to PEP013 was performed as follows. The non-alcoholic hepatitis model was induced by ad libitum feeding of a high-fat diet for 32, 50, or 53 weeks. Mice fed a high-fat diet for 50 weeks were fed a high-fat diet for an additional 3 weeks, and a novel tetrapeptide PEP006, PEP007, PEP008, PEP009, or PEP010 was dissolved in PBS buffer at a concentration of 0.2 μg/150 μL and then orally administered to the mice by 150 μL per animal at the same time until the end of the test, and mice fed a high-fat diet for 53 weeks were fed a high-fat diet for an additional 3 weeks, and a novel […] PEP011, PEP012, or PEP013 was dissolved in PBS buffer at a concentration of 0.2 μg/150 μL and then orally administered to the mice by 150 μL per animal at the same time until the end of the test. To the control group, PBS buffer was orally administered in the same manner. At the end of the experiment, a part of the liver harvested was homogenized with Trizol to extract RNA. Reverse transcriptase was added to the obtained RNA and reacted to synthesize cDNA, and SYBR Green and primers were added to perform quantitative real-time PCR (RT-qPCR), and then the expression levels of genes such as Tnfα, Il-1β, Il-10, and Il-1rn were quantified.

Assay [2] has as its system full-thickness skin defect wound-induced model. The assay can be described thus: Full-thickness skin defect wound-induced model (tail). As to conditions: 120 μM, 25 μL applied once a day for 28 days; vs vehicle. The protocol:
In order to confirm the tissue regeneration efficacy of the novel peptides, an experiment was conducted using a wound-induced model induced by a full-thickness skin defect of mouse's tail. For a full-thickness skin defect wound-induced model, 9-week-old specific pathogen free (SPF) male C57BL/6J mice were anesthetized, and then in order to indicate full-thickness wounding, a full-thickness wound with a size of 10 mm×3 mm was made on the dorsal part of the mouse's tail, about 1.0 cm away from the base of the mouse's tail, using an aseptic dissection mass No. 10. Bleeding was stopped by compressing the wound, and the wound was covered with a film spray dressing (Cavilon, 3M). For 28 days from the day of wound induction, Amuc_1409 or PEP001 to PEP013 were each dissolved in vehicle (50% ethanol, 20% propylene glycol, 30% water) at a concentration of 120 μM and then applied to the wound site by 25 μL per animal once a day. For the control group, the same volume of vehicle (50% ethanol, 20% propylene glycol, 30% water) was applied to the wound site. The test was terminated on day 29 after wound induction. In order to observe the wound healing effect, the wound sites of animals in each test group were individually photographed using a digital camera at a constant height from the wound for 28 days at 7-day intervals from the day of wound induction, and the wound area was measured using the Image J Soft program.

Assay [3] has as its system depression and anxiety model. As to the kind of experiment: LPS-induced depression and anxiety model (TST, FST, EPM). As to conditions: vs PBS buffer group; for Ifnγ mRNA expression in brain tissue (hippocampus) / Il-10 mRNA expression in brain tissue (hippocampus): RT-qPCR; for immobility time in forced swim test / immobility time in tail suspension test: oral, LPS-induced. On the procedure: By Daehan Biolink, 7-week-old male C57BL/6J mice weighing 20-22 g were supplied, and the animals were sufficiently supplied with solid feed and water until the day of the experiment, acclimatized for 1 week while maintaining an environment with a temperature of 22° C. 2° C., a humidity of 55%±15%, and a 12-hour light/dark cycle, and then used in the experiment. From 3 days before inducing depression and anxiety, the peptide was dissolved in PBS buffer and orally administered to the mice by 150 μL per animal at the same time once a day. Amuc_1409 or PEP001, PEP002, PEP003, PEP004, or PEP005 was dissolved in PBS buffer at a concentration of 6.7 μM and then used, and novel tetrapeptides PEP006, PEP007, PEP008, PEP009, and PEP010 and novel tripeptides PEP011, PEP012, and PEP013 were each dissolved in PBS buffer at a concentration of 0.2 μg/150 μL and then used. On the 3rd day of peptide administration, lipopolysaccharide (LPS) dissolved in PBS buffer was intraperitoneally injected at a concentration of 0.8 mg/kg to induce depression and anxiety. Tail suspension test (TST) and forced swim test (FST) were conducted to analyze the effect on depression. As the TST, a tail suspension device was installed in an open white acrylic box of 20 cm×25 cm×30 cm size, and the mouse was suspended upside down at a height where the mouse's tail would not touch the floor, and then the time for which the mouse maintained immobility while observing in the same environment was measured for 6 minutes. […] Water at around 25° C. was filled in a transparent acrylic cylinder (45 cm depth×18 cm diameter) up to 30 cm from the bottom, the mouse was exposed to water, and the time for which the mouse maintained immobility while swimming was measured for 6 minutes. […] An elevated plus-maze (EPM) test was performed to analyze the effect on anxiety level. The EPM device consists of two open arms (50 cm×10 cm) and two […] (50 cm×10 cm) at a height of 50 cm from the floor, and the arms are connected by a central area of 10 cm×10 cm. At the start of the experiment, the mouse was placed in the center of the maze and the time for which the mouse stayed in the open arm was measured for a total of 5 minutes using a video camera, and the percentage of time spent in the open arm was calculated and recorded [(time spent in open arm/time spent in open and closed arms)×100]. In addition, in order to examine the anti-inflammatory activity according to the administration of Amuc_1409 and PEP001, PEP002, PEP003, PEP004, and PEP005 in an animal model of depression and anxiety, the expression of Ifnγ and Il-10 mRNA, which are major inflammatory genes related to depression, in brain tissue (hippocampus) was examined.

On to GAY [PEP005], for which, in assay [1], the “11-10, which is an anti-inflammatory index (liver gene expression)” value was “significantly increased”; the “Il-1p gene expression in liver tissue” value was “significantly decreased”; the “Tnfα gene expression in liver tissue” value is “significantly decreased”. Also, in assay [2], the wound area result was “significantly decreased” and the “wound size (visually confirmed)” value is listed as “rapidly decreased”. Besides, in assay [3], the “Ifnγ mRNA expression in brain tissue (hippocampus)” value (from here on “Ifnγ mRNA expression”) is on record as “significantly decreased”, the “Il-10 mRNA expression in brain tissue (hippocampus)” value (“Il-10 mRNA expression” for short) is “significantly increased”, the “immobility time in forced swim test” value was “significantly decreased” and the “immobility time in tail suspension test” value was “significantly decreased”. The “time spent in the open arm, elevated plus-maze test” value (from here on “time spent in the open arm”) in assay [3] is given as “increased”.

Regarding AVS (AVSSIKGAY) [PEP004], in assay [1], the “11-10, which is an anti-inflammatory index (liver gene expression)” value is listed as “significantly increased”; the “Il-1p gene expression in liver tissue” value is reported as “decreased close to a significant level”; the “Tnfα gene expression in liver tissue” value is given as “significantly decreased”. In assay [2], the wound area result is listed as “significantly decreased” and the “wound size (visually confirmed)” value was “rapidly decreased”. In assay [3], the “Ifnγ mRNA expression” value was “significantly decreased”, the “Il-10 mRNA expression” value was “significantly increased”, the “immobility time in forced swim test” value is reported as “significantly decreased” and the “immobility time in tail suspension test” value is recorded as “significantly decreased”. Besides, the “time spent in the open arm” value in assay [3] is “increased”.

Take AGAY (PEP006): the “Tnfα gene expression in liver tissue” value in assay [1] was “tended to decrease”. For the same substance, in assay [2], the wound area result was “significantly decreased” and the “wound size (visually confirmed)” value is “rapidly decreased”. Also, in assay [3], the “immobility time in forced swim test” value is “tended to decrease” and the “immobility time in tail suspension test” value is on record as “decreased”.

Regarding VGAY (PEP010), in assay [1], the “Ifnγ gene expression in liver tissue” value is “tended to decrease”, the “Il-1p gene expression in liver tissue” value is reported as “significantly decreased”, the “Il-6 gene expression in liver tissue” value is on record as “tended to decrease” and the “Tnfα gene expression in liver tissue” value is “tended to decrease”. In assay [2], the wound area result was “significantly decreased” and the “wound size (visually confirmed)” value is listed as “rapidly decreased”. For the same substance, in assay [3], the “immobility time in forced swim test” value was “tended to decrease” and the “immobility time in tail suspension test” value is “decreased”.

Consider AVSSIKGAY (PEP001), for which, in assay [1], the “11-10, which is an anti-inflammatory index (liver gene expression)” value is “significantly increased” and the “Il-1p gene expression in liver tissue” value is “decreased close to a significant level”. In addition, in assay [2], the wound area entry was “significantly decreased” and the “wound size (visually confirmed)” value is listed as “rapidly decreased”. Further, in assay [3], the “Ifnγ mRNA expression” value was “significantly decreased”, the “Il-10 mRNA expression” value is listed as “significantly increased”, the “immobility time in forced swim test” value is “significantly decreased” and the “immobility time in tail suspension test” value is “significantly decreased”. Further, in assay [3], the “time spent in the open arm” value is “increased”.

As for RGAY (PEP007), in assay [1], the “Ifnγ gene expression in liver tissue” value is “tended to decrease”, the “Il-6 gene expression in liver tissue” value is reported as “tended to decrease” and the “Tnfα gene expression in liver tissue” value is given as “significantly decreased”. In addition, in assay [2], the wound area result was “significantly decreased” and the “wound size (visually confirmed)” value is “rapidly decreased”. In addition, in assay [3], the “immobility time in forced swim test” value is listed as “tended to decrease” and the “immobility time in tail suspension test” value is “decreased”.

As for AGS [PEP012], in assay [1], the “Il-1p gene expression in liver tissue” value is recorded as “tended to decrease”. In assay [3], the “immobility time in forced swim test” value is on record as “tended to decrease” and the “immobility time in tail suspension test” value is “decreased”.
